According to publication PMC9531372, “Metabolic profiling and pharmacokinetic studies of Baihu-Guizhi decoction in rats by UFLC-Q-TOF–MS/MS and UHPLC-Q-TRAP-MS/MS” (Chinese Medicine, 2022):

Assay: Pharmacokinetics of five absorbed components in rat serum after single or multiple gavage of BHGZD (UHPLC-Q-TRAP-MS/MS)
Settings: for AUC(0-inf) / AUC(0-t) / Cmax / MRT inf / MRT last / half-life / Tmax / CL / Vd: male, Lewis, rat, po
From the text: Male Lewis rats, weighing 200–240 g, were purchased from Beijing Charles River Experimental Animals Co. Ltd. (Beijing, China). […] Animal experiments were approved and supervised by the National Institutes of Health guide for the care and use of Laboratory animals. Every effort was made to minimize both the employed animal numbers as well as the potential discomfort of the animals throughout the study.
For single administration, rats were orally administrated with BHGZD powder at dose of 21.4 g/kg, which was equivalent to two-fold of clinical dose in human. […] For multiple administration, rats were intragastrically administered BHGZD (21.4 g/kg/day) once a day, for continuous 12 days. […] Serum was freshly prepared by centrifugation and stored at – 80 ℃ till analysis.
Quantification for five absorbed compounds of BHGZD in rat serum were achieved by using a Shimadzu ultra-high-performance liquid chromatography tandem ion trap quadrupole Q-TRAP 6500 plus mass spectrometry (UHPLC-Q-TRAP-MS/MS). Sample preparations were described above.
Chromatographic separation was carried out on a Poroshell 120 EC-C18 column (50 × 3.0 mm, 2.7 μm, Agilent, USA) with a flow rate 0.3 mL/min.
The optimized parameters for the mass spectrometer were set as follows: curtain gas, 35 psi; collision gas, medium; ionspray voltage, 4500 V; temperature, 550 °C; ion source gas 1 and 2, 55 psi. […] Data acquisition and analysis were achieved by OS-Q software (version 1.4.1.20719, AB Sciex, USA). Pharmacokinetic analysis was conducted by Drug and Statistic software (version 3.0, Shanghai, China).
The developed methodology was then applied for the in vivo pharmacokinetic evaluations of these five absorbed components. After single or multiple gavages of BHGZD, rat serum was collected at indicated time points, and the concentrations of five analyte were quantified accordingly.

[1] = serum, 21.4 g/kg, rat serum, BHGZD 21.4 g/kg oral gavage, single dose, n = 8, mean ± SEM

Row | AUC(0-inf) (serum, 21.4 g/kg) | AUC(0-t) (serum, 21.4 g/kg) | Cmax (serum, 21.4 g/kg) | MRT inf (serum, 21.4 g/kg) | MRT last (serum, 21.4 g/kg) | half-life (serum, 21.4 g/kg) | Tmax (serum, 21.4 g/kg, rat serum after BHGZD gavage, regimen not given) | Tmax [1] | AUC(0-inf) (in vivo, 21.4 g/kg) | AUC(0-t) (in vivo, 21.4 g/kg) | CL (in vivo, 21.4 g/kg) | Cmax (in vivo, 21.4 g/kg) | MRT inf (in vivo, 21.4 g/kg) | MRT last (in vivo, 21.4 g/kg) | Vd (in vivo, 21.4 g/kg) | half-life (in vivo, 21.4 g/kg) | Tmax (in vivo, 21.4 g/kg) | Tmax (serum, 21.4 g/kg/day, rat serum, BHGZD 21.4 g/kg/day gavage once a day for 12 days, multiple dose, sampled day 12, n = 8, mean ± SEM) | SMILES | pattern of absorption and elimination in serum (rat serum, single or multiple gavages of BHGZD)
1 | 307 ± 120 ng·h/mL | 110 ± 127 ng·h/mL | 53.3 ± 32.6 ng/mL | 10.5 ± 12.5 h | 3.66 ± 1.03 h | 2.36 ± 1.03 h | ~0.3 h | 0.37 ± 0.35 h | – | – | – | – | – | – | – | – | – | – | O=C(O)/C=C/c1ccccc1 [Cinnamic acid] | –
2 | – | – | – | – | – | – | – | – | 91.8 ± 44.2 ng·h/mL | 67.3 ± 36.8 ng·h/mL | 288,330 ± 150,321 L/h/kg | 15.6 ± 8.97 ng/mL | 5.83 ± 1.42 h | 5.06 ± 1.37 h | 867,518 ± 160,982 L/kg | 2.99 ± 0.82 h | 5.88 ± 2.85 h | – | CC1(C)[C@@H](O[C@H]2O[C@H](C(=O)O)[C@@H](O)[C@H](O)[C@H]2O[C@@H]2O[C@H](C(=O)O)[C@@H](O)[C@H](O)[C@H]2O)CC[C@]2(C)[C@H]3C(=O)C=C4[C@@H]5C[C@@](C)(C(=O)O)CC[C@]5(C)CC[C@@]4(C)[C@]3(C)CC[C@@H]12 [Glycyrrhizic acid] | –
3 | – | – | – | – | – | – | – | – | 298 ± 298 ng·h/mL | 266 ± 306 ng·h/mL | 228,709 ± 238,817 L/h/kg | 48.1 ± 52.7 ng/mL | 6.72 ± 6.64 h | 3.6 ± 0.75 h | 1,049,685 ± 1,125,516 L/kg | 3.64 ± 4.82 h | 2.56 ± 1.68 h | – | O=c1c2cc(O)c(O)cc2oc2cc(O)c([C@@H]3O[C@H](CO)[C@@H](O)[C@H](O)[C@H]3O)c(O)c12 [Mangiferin] | –
4 | 45.3 ± 13.9 ng·h/mL | 35.6 ± 7.99 ng·h/mL | 5.41 ± 1.23 ng/mL | 9.92 ± 2.73 h | 7.54 ± 1.15 h | 4.98 ± 1.74 h | – | 6.38 ± 1.69 h | – | – | – | – | – | – | – | – | – | 4.62 ± 2.13 h | C[C@H]1CC[C@@]2(OC1)O[C@H]1C[C@H]3[C@@H]4CC[C@@H]5C[C@@H](O[C@@H]6O[C@H](CO)[C@H](O)[C@H](O)[C@H]6O[C@@H]6O[C@H](CO)[C@@H](O)[C@H](O)[C@H]6O)CC[C@]5(C)[C@H]4CC[C@]3(C)[C@H]1[C@@H]2C [Timosaponin AIII] | dual-peak response with prolonged pattern of absorption and elimination
